Data published in DBAASP.
≈ marks a conversion by molar mass, not a printed value. Where “and” joins values, the source holds several entries; their conditions need not be identical. Equal entries are not always repeated. Blank lines part the entries; values can stand above or below the compound they belong to.

Columns and labels:
Test in all cases: ≥ marks a high value that may be exact or a test limit, other limits are often not marked, values filed in µg/mL are converted to µM
[1] = test system: Saccharomyces cerevisiae
[2] = test system: Pseudomonas putida
[3] = test system: Escherichia coli
[4] = test system: Candida albicans
[5] = test system: Bacillus subtilis
[6] = test system: Streptococcus mutans
[7] = test system: Serratia sp.
[8] = test system: Salmonella typhimurium
[9] = test system: Cryptococcus neoformans
[10] = test system: Staphylococcus aureus
[11] = test system: Candida glabrata 090902
[12] = test system: Nocardia asteroides
[13] = test system: Psychrobacter faecalis X29
[14] = test system: Escherichia coli ATCC 25922
[15] = test system: Klebsiella pneumoniae 08040724
[16] = test system: Enterococcus faecium 091299
[17] = test system: Enterococcus faecalis 981
[18] = test system: Staphylococcus aureus ATCC 25923
[19] = test system: Pseudomonas aeruginosa CGMCC 1.50
[20] = test system: Candida albicans ATCC 10231
[21] = test system: Enterobacter cloacae CGMCC 1.57
[22] = test system: Staphylococcus aureus ATCC 8530
[23] = test system: Pseudomonas aeruginosa NCTC 6751
[24] = test system: Escherichia coli W160-37
[25] = test system: Staphylococcus epidermidis
[26] = test system: Staphylococcus aureus A170
[27] = test system: Salmonella typhimurium CCARM 8009
[28] = test system: Staphylococcus epidermidis KCTC 1917
[29] = test system: Salmonella typhimurium CCARM 8003
[30] = test system: Bacillus subtilis KCTC 3068
[31] = test system: Staphylococcus aureus CCARM 3089
[32] = test system: Staphylococcus aureus CCARM 3114
[33] = test system: Staphylococcus aureus KCTC 1621
[34] = test system: Salmonella typhimurium KCTC 1926
[35] = test system: Escherichia coli CCARM 1238
[36] = test system: Escherichia coli KCTC 1682
[37] = test system: Pseudomonas aeruginosa KCTC 1637
[38] = test system: Escherichia coli CCARM 1229
[39] = test system: Enterococcus faecalis ATCC 29212
[40] = test system: Staphylococcus aureus ATCC 29213
[41] = test system: Proteus vulgaris ATCC 49132
[42] = test system: Klebsiella oxytoca ATCC 49131
[43] = test system: Micrococcus luteus ATCC 49732
[44] = test system: Candida tropicalis ATCC 37097
[45] = test system: Pseudomonas aeruginosa ATCC 27853
[46] = test system: Candida albicans ATCC 37092

SMILES: CC[C@H](C)[C@H](NC(=O)[C@H](CO)NC(=O)[C@H](CCCCN)NC(=O)[C@H](Cc1ccccc1)NC(=O)[C@H](CCCCN)NC(=O)[C@H](CCCCN)NC(=O)[C@H](CC(C)C)NC(=O)[C@@H]1CCCN1C(=O)[C@@H](NC(=O)[C@H](CCCCN)NC(=O)[C@@H](NC(=O)[C@@H](NC(=O)[C@H](C)N)C(C)C)C(C)C)C(C)C)C(=O)N[C@@H](CCCN=C(N)N)C(=O)N[C@@H](CCC(=O)O)C(=O)N[C@H](C(=O)N[C@@H](CCSC)C(=O)N[C@@H](CCCCN)C(=O)N[C@@H](CCC(=O)O)C(=O)N[C@@H](CCCCN)C(=O)NCC(=O)N[C@@H](CC(C)C)C(=O)N[C@@H](CC(C)C)C(=O)N[C@@H](CCC(=O)O)C(=O)N[C@@H](CC(=O)O)C(=O)N[C@@H](Cc1ccccc1)C(=O)O)[C@@H](C)O [AVVKVPLKKFKSIRETMKEKGLLEDF]
MIC [1]: 3.95 µM (≈ 12 µg/mL)
MIC [2]: ≥ 33 µM
MIC [3]: 16.5 µM (≈ 50 µg/mL)
MIC [4]: 33 µM (≈ 100 µg/mL)
MIC [5]: 16.5 µM (≈ 50 µg/mL)
MIC [6]: 16.5 µM (≈ 50 µg/mL)
MIC [7]: ≥ 65.9 µM
MIC [8]: 6.59 µM (≈ 20 µg/mL)
MIC [9]: ≥ 33 µM
MIC [10]: 33 µM (≈ 100 µg/mL)

SMILES: CC(=O)N[C@@H](Cc1ccccc1)C(=O)N[C@@H](CCCN=C(N)N)C(=O)N[C@@H](CCCCN)C(=O)N[C@@H](CC(C)C)C(=O)N[C@@H](Cc1ccccc1)C(=O)N[C@@H](CCCN=C(N)N)C(=O)N[C@H](C(=O)N[C@@H](Cc1ccc(O)cc1)C(=O)N[C@@H](CO)C(=O)N[C@@H](CC(N)=O)C(=O)N[C@@H](Cc1ccccc1)C(=O)N[C@@H](CC(C)C)C(=O)N[C@@H](CCCN=C(N)N)C(=O)NCC(=O)N[C@@H](CCCCN)C(=O)N[C@@H](CC(C)C)C(=O)N[C@@H](CCCCN)C(=O)N[C@@H](CC(C)C)C(N)=O)C(C)C [FRKLFRVYSNFLRGKLKL]
MIC [22]: 11 µM (≈ 25.6 µg/mL)
MIC [23]: 22 µM (≈ 51.2 µg/mL)
MIC [24]: 11 µM (≈ 25.6 µg/mL)

SMILES: CC[C@H](C)[C@H](NC(=O)[C@H](C)NC(=O)[C@H](CC(C)C)NC(=O)[C@H](Cc1c[nH]c2ccccc12)NC(=O)[C@H](CC(C)C)NC(=O)[C@@H](N)CCCN=C(N)N)C(=O)N[C@@H](Cc1c[nH]c2ccccc12)C(=O)N[C@@H](CCCN=C(N)N)C(=O)N[C@@H](CCCN=C(N)N)C(N)=O [RLWLAIWRR]
MIC [27]: 8 µM (≈ 10.1 µg/mL)
MIC [28]: 1 µM (≈ 1.27 µg/mL)
MIC [29]: 16 µM (≈ 20.3 µg/mL)
MIC [30]: 2 µM (≈ 2.54 µg/mL)
MIC [31]: 2 µM (≈ 2.54 µg/mL)
MIC [32]: 4 µM (≈ 5.07 µg/mL)
MIC [33]: 2 µM (≈ 2.54 µg/mL)
MIC [34]: 8 µM (≈ 10.1 µg/mL)
MIC [35]: 4 µM (≈ 5.07 µg/mL)
MIC [36]: 2 µM (≈ 2.54 µg/mL)
MIC [37]: 11.3 µM (≈ 14.4 µg/mL)
MIC [38]: 8 µM (≈ 10.1 µg/mL)

SMILES: CC(C)C[C@H](NC(=O)[C@H](CCCN=C(N)N)NC(=O)[C@H](CCCN=C(N)N)NC(=O)[C@H](Cc1ccc(O)cc1)NC(=O)[C@H](CC(C)C)NC(=O)[C@H](CCCN=C(N)N)NC(=O)[C@H](CCCN=C(N)N)NC(=O)[C@H](Cc1ccc(O)cc1)NC(=O)[C@H](CC(C)C)NC(=O)[C@H](CCCN=C(N)N)NC(=O)[C@H](CCCN=C(N)N)NC(=O)[C@H](Cc1ccc(O)cc1)NC(=O)[C@H](CC(C)C)NC(=O)[C@@H](N)CCCN=C(N)N)C(=O)N[C@@H](Cc1ccc(O)cc1)C(=O)N[C@@H](CCCN=C(N)N)C(N)=O [RLYRRLYRRLYRRLYR]
MIC [39]: 0.9 µM and 1.4 µM
MIC [40]: 1.8 µM and 1.1 µM
MIC [41]: 1.8 µM and 1.2 µM
MIC [42]: 0.9 µM (≈ 2.13 µg/mL)
MIC [43]: 0.6 µM (≈ 1.42 µg/mL)
MIC [14]: 1 µM and 0.7 µM
MIC [44]: 0.8 µM and 1.2 µM
MIC [45]: 0.5 µM and 1 µM
MIC [46]: 1.2 µM and 1.9 µM

More lines, now with the values ahead:

MIC [11]: 12.5 µM (≈ 32.3 µg/mL)
MIC [12]: 3.1 µM (≈ 8.01 µg/mL)
MIC [13]: 12.5 µM (≈ 32.3 µg/mL)
MIC [14]: 200 µM (≈ 517 µg/mL)
MIC [15]: ≥ 400 µM
MIC [16]: ≥ 100 µM
MIC [17]: 3.1 µM (≈ 8.01 µg/mL)
MIC [18]: 3.1 µM (≈ 8.01 µg/mL)
MIC [19]: ≥ 400 µM
MIC [20]: 100 µM (≈ 258 µg/mL)
MIC [21]: ≥ 100 µM
SMILES: CC[C@H](C)[C@H](NC(=O)[C@H](CCCCN)NC(=O)[C@H](CC(C)C)NC(=O)[C@H](C)NC(=O)[C@@H](NC(=O)CNC(=O)[C@H](CCSC)NC(=O)[C@@H](N)Cc1ccccc1)[C@@H](C)O)C(=O)N[C@@H](C)C(=O)N[C@@H](C)C(=O)N[C@@H](CC(N)=O)C(=O)N[C@H](C(=O)N[C@@H](CC(C)C)C(=O)N1CCC[C@H]1C(=O)N[C@@H](C)C(=O)N[C@@H](C)C(=O)N[C@@H](Cc1ccccc1)C(=O)N[C@H]1CSSC[C@@H](C(=O)O)NC(=O)[C@H](CCCCN)NC(=O)[C@H](CCCCN)NC(=O)[C@H](Cc2ccccc2)NC(=O)[C@H]([C@@H](C)CC)NC(=O)[C@H](CCCCN)NC1=O)C(C)C [FMGTALKIAANVLPAAFCKIFKKC]

MIC [25]: 7.41 µM (≈ 10 µg/mL)
MIC [26]: 14.8 µM (≈ 20 µg/mL)
SMILES: CC[C@H](C)[C@H](NC(=O)[C@@H]1CCCN1C(=O)[C@H](CC(C)C)NC(=O)[C@@H](N)CC(C)C)C(=O)N[C@H](C(=O)NCC(=O)N[C@@H](C)C(=O)N[C@@H](CC(C)C)C(=O)N[C@@H](CC(C)C)C(=O)N[C@@H](CCCCN)C(=O)N[C@@H](CO)C(=O)N[C@@H](CC(C)C)C(=O)N[C@@H](CC(C)C)C(=O)O)C(C)C [LLPIVGALLKSLL]
